How the values were obtained:
HT29 [1] = conditions: HT29, Colon cancer; five-dose 0.01–100 µM
RPMI-8226 = assay: cells; conditions: Homo sapiens
MDA-MB-468 [2] = assay: cells; conditions: Homo sapiens
SNB-19 = assay: cells; conditions: Homo sapiens
MDA-MB-231/ATCC = assay: cells; conditions: Homo sapiens
UO-31 = conditions: UO-31, Renal cancer; five-dose 0.01–100 µM
NCI-H460 = assay: cells; conditions: Homo sapiens
BT-549 [3] = conditions: BT-549, Breast cancer; five-dose 0.01–100 µM
OVCAR-4 = assay: cells; conditions: Homo sapiens
K-562 = conditions: K-562, Leukaemia; five-dose 0.01–100 µM
SF-295 = conditions: SF-295, CNS cancer; five-dose 0.01–100 µM
IGROV1 = conditions: IGROV1, Ovarian cancer; five-dose 0.01–100 µM
HS 578 T = assay: NCI one-dose screen (SRB); format: cell-based, human; conditions: Breast cancer, 10 µM single dose
Experimental: (§1) The growth percentage (G%) and cell viability of the herein target compounds 6a–l, 7a,b, and 9a–c have been screened towards a full panel of 59 cancer cells at NCI’s Developmental Therapeutics Program (NCI-DTP, MD, USA)[21]. The submitted analogues were initially examined for preliminary in vitro anticancer activity using sulforhodamine B (SRB) assay at 10 µM as a single dose to evaluate cell growth and viability according to the procedure of Drug Evaluation Branch[22]^,[23].
(§2) Different types of tumours – colon, NSCLC, leukaemia, CNS, renal, breast, ovarian, melanoma, and prostate cancers – were investigated as a full panel of 59 cell lines, and the attained results are cited in Figures S1–S17 (see Supplementary Material) where the value recorded is the growth relative to that of both the negative control and zero-time number of cells in which both growth inhibition (GI%; 0–100%) and lethality (L%; 0–100%) percentages can be identified. The growth inhibition means percentages (MGI%) for the examined target analogues towards the different treated 59 cancer cells were presented in Figure 2.
(§3) The designed analogues were submitted to NCI-Chemotherapeutic Agents Repository (MD, USA) for screening on a panel of 59 cancer cell lines. All compounds were initially examined at 10 µM concentration (Single-Dose Screen), and then the most efficient analogue 6i was screened further at 0.01–100 µM (Five-Dose Screen). The screening procedures were performed according to NCI-Drug Evaluation Branch protocol using SRB protein assay, as described previously[21]^,[66]. The experimental procedures were detailed in the Supporting Information.

SF-539 = assay: NCI one-dose screen (SRB); format: cell-based, human; conditions: SF-539, CNS cancer; 10 µM single dose
Experimental: as §1, §2, §3

MDA-MB-468 [4] = assay: NCI one-dose screen (SRB); format: cell-based, human; conditions: MDA-MB-468, Breast; 10 µM single dose
Experimental: as §1, §2, §3

HT29 [5] = assay: NCI one-dose screen (SRB); format: cell-based, human; conditions: HT29, Colon cancer; 10 µM single dose
Experimental: as §1, §2, §3

HOP-92 = assay: NCI one-dose screen (SRB); format: cell-based, human; conditions: HOP-92, NSCLC; 10 µM single dose
Experimental: as §1, §2, §3

BT-549 [6] = assay: NCI one-dose screen (SRB); format: cell-based, human; conditions: BT-549, Breast cancer; 10 µM single dose
Experimental: as §1, §2, §3

LOX IMVI = assay: NCI one-dose screen (SRB); format: cell-based, human; conditions: Melanoma, 10 µM single dose
Experimental: as §1, §2, §3

SF-268 = conditions: SF-268, CNS cancer; five-dose 0.01–100 µM
MOLT-4 = assay: cells; conditions: Homo sapiens
SR = assay: cells; conditions: Homo sapiens
BT-549 [7] = assay: cells; conditions: Homo sapiens
UACC-257 = assay: cells; conditions: Homo sapiens
HT29 [8] = assay: cells; conditions: Homo sapiens
DU-145 = conditions: DU-145, Prostate cancer; five-dose 0.01–100 µM
HOP-62 = assay: cells; conditions: Homo sapiens
SK-OV-3 = assay: cells; conditions: Homo sapiens
HCT-15 = assay: cells; conditions: Homo sapiens
SN12C = assay: cells; conditions: Homo sapiens

With `CCOC(=O)CC[C@H](NC(=O)c1ccc(NC(=O)Cn2cnc3c(c(C)nn3-c3ccc(Br)cc3)c2=O)cc1)C(=O)OCC` [Compound 6i] the TGI (HT29 [1]) was 71.7 µM, the GI50 (RPMI-8226; RPMI-8226) was 22.7 µM and the CC50 (RPMI-8226; RPMI-8226, read-out: LC50) was > 100 µM. For the same molecule, the GI50 (MDA-MB-468 [2]; MDA-MB-468) was 13.5 µM, the CC50 (MDA-MB-468 [2]; MDA-MB-468, read-out: LC50) was > 100 µM and the GI50 (SNB-19; SNB-19) was 12.1 µM. The CC50 (SNB-19; SNB-19, read-out: LC50) was 61.3 µM, the GI50 (MDA-MB-231/ATCC; MDA-MB-231) was 11.5 µM and the CC50 (MDA-MB-231/ATCC; MDA-MB-231, read-out: LC50) was 62.5 µM. It also gave a TGI (UO-31) of 55.9 µM, a GI50 (NCI-H460; NCI-H460) of 13.7 µM and a CC50 (NCI-H460; NCI-H460, read-out: LC50) of 86.9 µM. For the same molecule, the TGI (BT-549 [3]) was >100 µM, the GI50 (OVCAR-4; OVCAR-4) was 13.4 µM and the CC50 (OVCAR-4; OVCAR-4, read-out: LC50) was 76.7 µM. For the same molecule, the TGI (K-562) was >100 µM, the TGI (SF-295) was 31.9 µM and the TGI (IGROV1) was 74.2 µM. For the same molecule, the GI% (HS 578 T) was 75.80%, the GI% (SF-539) was 54.23% and the GI% (MDA-MB-468 [4]) was 92.44%. The GI% (HT29 [5]) was 59.90%, the GI% (HOP-92) was 78.29% and the GI% (BT-549 [6]) was 66.64%. For the same molecule, the GI% (LOX IMVI) was 78.49%, the TGI (SF-268) was 32.8 µM and the GI50 (MOLT-4; MOLT-4) was > 100 µM. The CC50 (MOLT-4; MOLT-4, read-out: LC50) was > 100 µM, the GI50 (SR) was 71 µM and the CC50 (SR; read-out: LC50) was > 100 µM. The GI50 (BT-549 [7]; BT-549) was 4.54 µM, the CC50 (BT-549 [7]; BT-549, read-out: LC50) was > 100 µM and the GI50 (UACC-257; UACC-257) was 31.5 µM. For the same molecule, the CC50 (UACC-257; UACC-257, read-out: LC50) was > 100 µM, the GI50 (HT29 [8]; HT-29) was 18.4 µM and the CC50 (HT29 [8]; HT-29, read-out: LC50) was > 100 µM. The TGI (DU-145) was 28.8 µM, the GI50 (HOP-62; HOP-62) was 5.11 µM and the CC50 (HOP-62; HOP-62, read-out: LC50) was 57.5 µM. For the same molecule, the GI50 (SK-OV-3; SK-OV-3) was 21.8 µM, the CC50 (SK-OV-3; SK-OV-3, read-out: LC50) was > 100 µM and the GI50 (HCT-15; HCT-15) was 26 µM. The CC50 (HCT-15; HCT-15, read-out: LC50) was > 100 µM, the GI50 (SN12C) was 29.2 µM and the CC50 (SN12C; read-out: LC50) was > 100 µM.
